Data as given in PubChem BioAssay (NCI).
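All cell lines were grown in 96-well plates and treated with compound for 48 hours. Abbreviation: GI50, concentration required for 50% inhibition of growth. TGI: total growth inhibition.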

How the values were obtained:
Test in all cases: NCI-60 cell line screen, 48 h
SW-620 colon = test system: SW-620 colon
SK-MEL-5 melanoma = test system: SK-MEL-5 melanoma
SF-539 CNS = test system: SF-539 CNS
RPMI-8226 leukemia = test system: RPMI-8226 leukemia
UACC-257 melanoma = test system: UACC-257 melanoma
SK-OV-3 ovarian = test system: SK-OV-3 ovarian
COLO 205 colon = test system: COLO 205 colon
HS 578T breast = test system: HS 578T breast
MALME-3M melanoma = test system: MALME-3M melanoma
UACC-62 melanoma = test system: UACC-62 melanoma

SMILES	GI50 (SW-620 colon)	TGI (SW-620 colon)	GI50 (SK-MEL-5 melanoma)	TGI (SK-MEL-5 melanoma)	GI50 (SF-539 CNS)	TGI (SF-539 CNS)	GI50 (RPMI-8226 leukemia)	TGI (RPMI-8226 leukemia)	GI50 (UACC-257 melanoma)	TGI (UACC-257 melanoma)	GI50 (SK-OV-3 ovarian)	TGI (SK-OV-3 ovarian)	GI50 (COLO 205 colon)	TGI (COLO 205 colon)	GI50 (HS 578T breast)	TGI (HS 578T breast)	GI50 (MALME-3M melanoma)	TGI (MALME-3M melanoma)	GI50 (UACC-62 melanoma)	TGI (UACC-62 melanoma)
COc1cc(C(=O)/C=C/c2cccnc2Nc2ccc(Cl)cc2)cc(OC)c1OC	0.955 µM	2.47 µM	1.5 µM	2.84 µM	1.71 µM	3.11 µM	0.655 µM	5.01 µM	1.5 µM	2.92 µM	1.72 µM	3.29 µM	1.83 µM	3.47 µM	3.08 µM	59.2 µM	1.91 µM	3.65 µM	1.54 µM	2.98 µM
COc1ccc(-c2cc(-c3ccc(Cl)cc3)nc(SCCCC(=O)NO)n2)cc1OC	0.578 µM	2.76 µM	1.03 µM	2.4 µM	1.28 µM	3 µM	0.946 µM	7.44 µM	1.81 µM	4.89 µM	1.54 µM	4.58 µM	1.73 µM	5.06 µM	2.31 µM	11.1 µM	1.6 µM	5.64 µM	1.01 µM	2.86 µM
